Laboratory results published in patent US8372832B2 (priority 2006, dated 2013).

Target: α7-subtype of nicotinic receptors (Rattus norvegicus, UniProt Q05941)
Test: biochemical
Assay type: binding

Chain of α7-subtype of nicotinic receptors (Q05941 23-502): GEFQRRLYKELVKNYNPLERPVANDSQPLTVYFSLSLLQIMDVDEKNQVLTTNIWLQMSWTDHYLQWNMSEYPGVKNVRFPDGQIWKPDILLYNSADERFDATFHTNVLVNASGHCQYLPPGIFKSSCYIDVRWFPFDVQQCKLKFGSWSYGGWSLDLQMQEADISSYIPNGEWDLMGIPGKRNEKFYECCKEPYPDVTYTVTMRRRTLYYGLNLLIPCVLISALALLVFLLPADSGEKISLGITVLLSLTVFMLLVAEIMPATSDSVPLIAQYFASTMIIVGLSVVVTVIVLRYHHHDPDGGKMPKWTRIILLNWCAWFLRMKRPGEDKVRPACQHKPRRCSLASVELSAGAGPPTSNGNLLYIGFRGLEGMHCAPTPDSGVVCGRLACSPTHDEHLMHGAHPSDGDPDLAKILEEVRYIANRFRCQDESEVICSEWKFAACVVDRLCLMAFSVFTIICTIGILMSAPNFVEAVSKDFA

SMILES: Brc1ccc(-c2nnc(N3CCN4CCC3CC4)o2)o1 [Compound A1, 4-[5-(5-Bromo-furan-2-yl)-[1,3,4]oxadiazol-2-yl]-1,4-diaza-bicyclo[3.2.2]nonane]
- IC50: < 10 nM
